Tested on: Sub-Populations of Crohn's Disease Patients
Test: CD-LAQ-201 sub-populations of Crohn's disease patients (Example 2)
Type: in vivo, human
Method: This study was conducted according and with similar requirements as presented in Example 1. […] Patients, who have received anti-TNFαs in the past, tend to reflect a more severe, refractory segment of the Crohn's disease population. […] This sub-cohort analysis describes remission rates at week 8 for patients who were classified as having a predominantly inflammatory disease (based on the Montreal classifications) versus those that have a fibrostenotic or penetrating disease.

[1] = Laq 1.0 mg, Previous use of anti-TNFαs YES, week 8
[2] = Laq 1.5 mg, Fibrostenotic, week 8
[3] = Laq 1.5 mg, Inflammatory, week 8
[4] = Laq 1.5 mg, Oral steroids on Baseline NO
[5] = Laq 1.5 mg, Oral steroids on Baseline NO, week 8
[6] = Laq 1.5 mg, Oral steroids on Baseline YES
[7] = Laq 1.5 mg, Oral steroids on Baseline YES, week 8
[8] = Laq 1.5 mg, Previous Operations NO
[9] = Laq 1.5 mg, Previous Operations NO, week 8
[10] = Laq 1.5 mg, Previous Operations YES
[11] = Laq 1.5 mg, Previous Operations YES, week 8
[12] = Laq 1.5 mg, Previous use of anti-TNFαs NO
[13] = Laq 1.5 mg, Previous use of anti-TNFαs NO, week 8
[14] = Laq 1.5 mg, Previous use of anti-TNFαs YES
[15] = Laq 1.5 mg, Previous use of anti-TNFαs YES, week 8
[16] = Laq 2.0 mg, Fibrostenotic, week 8
[17] = Laq 2.0 mg, Inflammatory, week 8
[18] = Laq 2.0 mg, Oral steroids on Baseline NO
[19] = Laq 2.0 mg, Oral steroids on Baseline NO, week 8
[20] = Laq 2.0 mg, Oral steroids on Baseline YES
[21] = Laq 2.0 mg, Oral steroids on Baseline YES, week 8
[22] = Laq 2.0 mg, Previous Operations NO
[23] = Laq 2.0 mg, Previous Operations NO, week 8
[24] = Laq 2.0 mg, Previous Operations YES
[25] = Laq 2.0 mg, Previous Operations YES, week 8
[26] = Laq 2.0 mg, Previous use of anti-TNFαs NO
[27] = Laq 2.0 mg, Previous use of anti-TNFαs NO, week 8
[28] = Laq 2.0 mg, Previous use of anti-TNFαs YES
[29] = Laq 2.0 mg, Previous use of anti-TNFαs YES, week 8

## CCN(C(=O)c1c(O)c2c(Cl)cccc2n(C)c1=O)c1ccccc1 [laquinimod]
Laq 1.0 mg, Previous use of anti-TNFαs YES
  Responders100 - N (%): N: 5
[1]
  Remission - N (%): %: 16.7%
  Remission - N (%): N: 3
Laq 1.5 mg, Fibrostenotic
  CDAI Change from Baseline - Mean ± SD: −51.8
  Responders70 - N (%): %: 27.8%
  Responders70 - N (%): N: 5
  Responders100 - N (%): %: 27.8%
  Responders100 - N (%): N: 5
[2]
  Remission - N (%): %: 11.1%
  Remission - N (%): N: 2
Laq 1.5 mg, Inflammatory
  CDAI Change from Baseline - Mean ± SD: −43.8
  Responders70 - N (%): %: 36.4%
  Responders70 - N (%): N: 4
  Responders100 - N (%): %: 27.3%
  Responders100 - N (%): N: 3
[3]
  Remission - N (%): %: 18.2%
  Remission - N (%): N: 2
[4]
  CDAI Change from Baseline - Mean ± SD: −46.8
  Responders70 - N (%): %: 25.0%
  Responders70 - N (%): N: 5
  Responders100 - N (%): %: 20.0%
  Responders100 - N (%): N: 4
[5]
  Remission - N (%): %: 10.0%
  Remission - N (%): N: 2
[6]
  CDAI Change from Baseline - Mean ± SD: −52.6
  Responders70 - N (%): %: 44.4%
  Responders70 - N (%): N: 4
  Responders100 - N (%): %: 44.4%
  Responders100 - N (%): N: 4
[7]
  Remission - N (%): %: 22.2%
  Remission - N (%): N: 2
[8]
  CDAI Change from Baseline - Mean ± SD: −68.3
  Responders70 - N (%): %: 43.8%
  Responders70 - N (%): N: 7
  Responders100 - N (%): %: 37.5%
  Responders100 - N (%): N: 6
[9]
  Remission - N (%): %: 25.0%
  Remission - N (%): N: 4
[10]
  CDAI Change from Baseline - Mean ± SD: −26.0
  Responders70 - N (%): %: 15.4%
  Responders70 - N (%): N: 2
  Responders100 - N (%): %: 15.4%
  Responders100 - N (%): N: 2
[11]
  Remission - N (%): %: 0.0%
  Remission - N (%): N: 0
[12]
  CDAI Change from Baseline - Mean ± SD: −95.5
  Responders70 - N (%): %: 54.5%
  Responders70 - N (%): N: 6
  Responders100 - N (%): %: 45.5%
  Responders100 - N (%): N: 5
[13]
  Remission - N (%): %: 27.3%
  Remission - N (%): N: 3
[14]
  CDAI Change from Baseline - Mean ± SD: −18.4
  Responders70 - N (%): %: 16.7%
  Responders70 - N (%): N: 3
  Responders100 - N (%): %: 16.7%
  Responders100 - N (%): N: 3
[15]
  Remission - N (%): %: 5.6%
  Remission - N (%): N: 1
Laq 2.0 mg, Fibrostenotic
  CDAI Change from Baseline - Mean ± SD: −40.7
  Responders70 - N (%): %: 22.2%
  Responders70 - N (%): N: 4
  Responders100 - N (%): %: 22.2%
  Responders100 - N (%): N: 4
[16]
  Remission - N (%): %: 16.7%
  Remission - N (%): N: 3
Laq 2.0 mg, Inflammatory
  CDAI Change from Baseline - Mean ± SD: −33.1
  Responders70 - N (%): %: 36.4%
  Responders70 - N (%): N: 4
  Responders100 - N (%): %: 36.4%
  Responders100 - N (%): N: 4
[17]
  Remission - N (%): %: 18.2%
  Remission - N (%): N: 2
[18]
  CDAI Change from Baseline - Mean ± SD: −39.7
  Responders70 - N (%): %: 29.2%
  Responders70 - N (%): N: 7
  Responders100 - N (%): %: 29.2%
  Responders100 - N (%): N: 7
[19]
  Remission - N (%): %: 16.7%
  Remission - N (%): N: 4
[20]
  CDAI Change from Baseline - Mean ± SD: −20.3
  Responders70 - N (%): %: 20.0%
  Responders70 - N (%): N: 1
  Responders100 - N (%): %: 20.0%
  Responders100 - N (%): N: 1
[21]
  Remission - N (%): %: 20.0%
  Remission - N (%): N: 1
[22]
  CDAI Change from Baseline - Mean ± SD: −54.6
  Responders70 - N (%): %: 37.5%
  Responders70 - N (%): N: 6
  Responders100 - N (%): %: 37.5%
  Responders100 - N (%): N: 6
[23]
  Remission - N (%): %: 18.8%
  Remission - N (%): N: 3
[24]
  CDAI Change from Baseline - Mean ± SD: −14.2
  Responders70 - N (%): %: 15.4%
  Responders70 - N (%): N: 2
  Responders100 - N (%): %: 15.4%
  Responders100 - N (%): N: 2
[25]
  Remission - N (%): %: 15.4%
  Remission - N (%): N: 2
[26]
  CDAI Change from Baseline - Mean ± SD: −56.4
  Responders70 - N (%): %: 55.6%
  Responders70 - N (%): N: 10
  Responders100 - N (%): %: 33.3%
  Responders100 - N (%): N: 6
[27]
  Remission - N (%): %: 27.8%
  Remission - N (%): N: 5
[28]
  CDAI Change from Baseline - Mean ± SD: −102.2
  Responders70 - N (%): %: 50.0%
  Responders70 - N (%): N: 6
  Responders100 - N (%): %: 50.0%
  Responders100 - N (%): N: 6
[29]
  Remission - N (%): %: 25.0%
  Remission - N (%): N: 3
Laquinimod 0.5 mg
  effect of oral steroids together with laquinimod on remission at week 8: potential synergistic effect
  effect on remission at week 8 with or without previous operations: had an effect over placebo in both sub-populations
Laquinimod 0.5 mg and 1 mg, week 8
  remission in predominantly inflammatory disease vs the complementary cohort: may work better

Source: US9161935B2 (TEVA PHARMACEUTICAL INDUSTRIES, LTD., priority 2012, dated 2015)
